{"source": "patent CN117771387A", "about": "“糖响应性复合物及其制备方法和应用” (priority 2022, dated 2024)", "key": {"AKT信号磷酸化": {"test_system": "AKT信号磷酸化", "assay": "In vitro activity of Glu-insulin: AKT phosphorylation in HepG2 cells (western blot)", "assay_type": "cell-based", "details": "10 min, 0-100nM"}, "1型糖尿病小鼠": {"test_system": "1型糖尿病小鼠", "assay": "Blood glucose lowering by Glu-insulin in STZ-induced type 1 diabetic mice", "assay_type": "in vivo, C57BL/6小鼠", "details": "s.c., insulin-equivalent dose 1.5mg/kg"}}, "data": [{"substance": "Glu-insulin: Recombinant human insulin modified with gluconic acid at A1 (N-terminus of the α chain) [葡萄糖酸基胰岛素]", "values": [{"measurement": "Activity on AKT phosphorylation compared with recombinant human insulin", "setting": "AKT信号磷酸化", "value": "显示出与未修饰的重组人胰岛素相似的活性"}, {"measurement": "Blood glucose lowering effect compared with recombinant human insulin", "setting": "1型糖尿病小鼠", "value": "仍有与重组人胰岛素类似的降糖效果"}]}]}
